Where “and” joins values, the source holds several entries; their conditions need not be identical. Equal entries are not always repeated. Where two headings read alike, the source gives them in different places. Blank lines part the entries; values can stand above or below the molecule they belong to.
Tests used:
CDK12–cyclin K and DDB1 = target: T1, CDK12–cyclin K and DDB1 (Homo sapiens, UniProt Q16531+Q9NYV4, K965R); experiment: TR-FRET ternary complex formation assay (compound titration); type: binding
T1 construct: His6–CDK12 (a.a. 713–1,052); full-length or beta-propeller B domain deletion (ΔBPB: a.a. 396–705 deleted) constructs of His6–DDB1ΔBPB, StrepII–Avi–DDB1, or His6–Spy–DDB1; made in house; host or cells: Trichoplusia ni High Five insect cells (baculovirus)
Method in brief: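 Delayed (70 μs) time-resolved read; FRET computed as 520 nm over 490 nm emission.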

[1] = test system: cyclin K–eGFP degradation reporter; experiment: Cyclin K reporter stability analysis (dual-color cyclin K–eGFP reporter); type: cell-based, human
Method in brief: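 HEK293T–Cas9 cells carrying the cyclin K–eGFP reporter were seeded at 1 × 10^6 ml^−1 and exposed to drug or DMSO for 5 h. Flow cytometry gave geometric means of eGFP and mCherry in round, mCherry-positive cells. The eGFP/mCherry ratio was normalized to the mean of three DMSO controls.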

HEK293T cells = experiment: Drug sensitivity assay (CellTiter-Glo viability) with or without MLN4924 pretreatment; type: cell-based, human; conditions: for EC50: Homo sapiens, HEK-293T, HEK293T viability, 72 h, compound alone, read-out: Cellular assays EC50; for EC50 / Toxicity rescue: Supplementary Table 2; for Toxicity rescue: MLN4924-mediated cytotoxicity rescue, 10 µM used where n.d.
Method in brief: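 Viability of HEK293T–Cas9 cells was compared after 3-day drug treatment with or without 100 nM MLN4924 pretreatment (2 h, versus DMSO). Values are CellTiter-Glo signals relative to DMSO controls.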

[2] = compound concentration 79.2001 nM
[3] = compound concentration 158.4 nM
[4] = compound concentration 309.6 nM
[5] = compound concentration 626.401 nM
[6] = compound concentration 1252.8 nM
[7] = compound concentration 9936.01 nM
[8] = compound concentration 20016 nM
[9] = Supplementary Table 2, HEK293T cycK-eGFP reporter, 5 h, read-out: Cellular assays DC50
[10] = in vitro complex formation, 50 nM CDK12–cyclin K, 100 nM DDB1, text and figures, read-out: TR-FRET EC50

T1 sequence (Q9NYV4 713-1052 K965R): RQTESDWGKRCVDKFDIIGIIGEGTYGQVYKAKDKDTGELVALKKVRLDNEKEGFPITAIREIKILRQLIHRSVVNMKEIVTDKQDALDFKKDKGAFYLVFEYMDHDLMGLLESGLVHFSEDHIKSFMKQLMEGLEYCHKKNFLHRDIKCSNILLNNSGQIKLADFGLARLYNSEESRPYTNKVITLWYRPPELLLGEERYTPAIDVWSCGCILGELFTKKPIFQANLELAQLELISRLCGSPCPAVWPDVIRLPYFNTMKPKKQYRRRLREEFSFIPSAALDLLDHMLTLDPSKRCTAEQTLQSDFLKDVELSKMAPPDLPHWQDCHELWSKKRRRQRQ
T1 sequence (O75909 1-267 partner): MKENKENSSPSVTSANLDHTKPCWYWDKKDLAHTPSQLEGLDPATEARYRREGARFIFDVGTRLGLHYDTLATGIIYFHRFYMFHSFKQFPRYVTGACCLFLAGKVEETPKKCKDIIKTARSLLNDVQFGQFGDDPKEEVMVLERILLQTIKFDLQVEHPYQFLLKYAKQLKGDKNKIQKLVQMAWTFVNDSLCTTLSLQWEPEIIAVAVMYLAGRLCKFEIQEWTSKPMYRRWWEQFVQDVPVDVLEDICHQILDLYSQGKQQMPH
T1 sequence (Q16531 whole entry): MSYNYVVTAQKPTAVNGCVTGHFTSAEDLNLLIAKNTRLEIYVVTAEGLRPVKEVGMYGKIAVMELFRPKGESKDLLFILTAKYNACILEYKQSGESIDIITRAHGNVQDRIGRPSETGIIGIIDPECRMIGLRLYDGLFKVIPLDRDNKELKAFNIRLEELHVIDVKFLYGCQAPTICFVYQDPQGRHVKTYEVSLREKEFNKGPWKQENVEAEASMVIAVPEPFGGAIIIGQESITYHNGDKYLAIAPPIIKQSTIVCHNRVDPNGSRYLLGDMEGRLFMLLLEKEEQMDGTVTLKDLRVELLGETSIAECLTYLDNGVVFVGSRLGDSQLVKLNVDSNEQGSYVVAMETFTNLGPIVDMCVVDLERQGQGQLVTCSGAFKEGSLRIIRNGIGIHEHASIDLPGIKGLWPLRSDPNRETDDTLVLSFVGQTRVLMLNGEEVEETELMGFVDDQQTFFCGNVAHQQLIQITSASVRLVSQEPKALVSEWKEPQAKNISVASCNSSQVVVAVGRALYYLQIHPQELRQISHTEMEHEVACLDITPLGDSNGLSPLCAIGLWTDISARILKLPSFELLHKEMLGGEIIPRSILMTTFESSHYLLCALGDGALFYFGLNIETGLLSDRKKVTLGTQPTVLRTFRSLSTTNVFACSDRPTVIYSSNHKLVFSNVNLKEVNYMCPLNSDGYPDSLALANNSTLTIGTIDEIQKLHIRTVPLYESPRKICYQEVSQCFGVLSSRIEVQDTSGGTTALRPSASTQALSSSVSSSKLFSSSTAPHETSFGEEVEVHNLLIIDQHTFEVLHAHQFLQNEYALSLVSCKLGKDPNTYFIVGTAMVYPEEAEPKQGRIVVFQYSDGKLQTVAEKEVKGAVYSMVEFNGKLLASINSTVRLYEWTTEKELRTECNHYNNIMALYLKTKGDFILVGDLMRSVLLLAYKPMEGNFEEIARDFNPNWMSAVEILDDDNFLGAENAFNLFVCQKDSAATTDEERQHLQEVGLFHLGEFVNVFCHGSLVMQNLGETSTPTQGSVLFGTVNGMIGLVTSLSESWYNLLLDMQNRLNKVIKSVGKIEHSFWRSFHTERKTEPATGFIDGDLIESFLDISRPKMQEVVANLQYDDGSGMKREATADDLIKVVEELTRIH

SMILES: CC(C)(C)c1cnc(CSc2cnc(NC(=O)C3CCNCC3)s2)o1 [SNS032, reference compound]
TR-FRET signal (CDK12–cyclin K and DDB1; compound concentration 4.68 nM): 0.1508 and 0.1736 | TR-FRET signal (CDK12–cyclin K and DDB1; compound concentration 21.6 nM): 0.2014 and 0.2318 | TR-FRET signal (CDK12–cyclin K and DDB1; compound concentration 36 nM): 0.2617 and 0.2904 | TR-FRET signal (CDK12–cyclin K and DDB1; [2]): 0.3013 and 0.3457 | TR-FRET signal (CDK12–cyclin K and DDB1; [3]): 0.3207 and 0.3602 | TR-FRET signal (CDK12–cyclin K and DDB1; [4]): 0.329 and 0.3662 | TR-FRET signal (CDK12–cyclin K and DDB1; [5]): 0.3309 and 0.3799 | TR-FRET signal (CDK12–cyclin K and DDB1; [6]): 0.346 and 0.4035 | TR-FRET signal (CDK12–cyclin K and DDB1; compound concentration 2448 nM): 0.3618 and 0.4046 | TR-FRET signal (CDK12–cyclin K and DDB1; [7]): 0.3822 and 0.42 | TR-FRET signal (CDK12–cyclin K and DDB1; [8]): 0.3638 and 0.4143 | DDB1–CDK12 complex formation, result in words (CDK12–cyclin K and DDB1; in vitro TR-FRET): no gain-of-function activity | DC50 [1, 9]: > 10000 nM | EC50 (HEK293T cells): 265 nM | % MLN4924 rescue (HEK293T cells; PCA input): 0% | Toxicity rescue (HEK293T cells): -22%

EC50 (CDK12–cyclin K and DDB1; Supplementary Table 2, read-out: TR-FRET EC50 TR-FRET): 185 nM | TR-FRET signal, individual replicate (CDK12–cyclin K and DDB1; compound concentration 4.68 nM): 0.1665 and 0.1912 | TR-FRET signal, individual replicate (CDK12–cyclin K and DDB1; compound concentration 21.6 nM): 0.2604 and 0.3178 | TR-FRET signal, individual replicate (CDK12–cyclin K and DDB1; compound concentration 36 nM): 0.4113 and 0.4843 | TR-FRET signal, individual replicate (CDK12–cyclin K and DDB1; [2]): 0.6704 and 0.7869 | TR-FRET signal, individual replicate (CDK12–cyclin K and DDB1; [3]): 0.9573 and 1.072 | TR-FRET signal, individual replicate (CDK12–cyclin K and DDB1; [4]): 1.2282 and 1.396 | TR-FRET signal, individual replicate (CDK12–cyclin K and DDB1; [5]): 1.549 and 1.7468 | TR-FRET signal, individual replicate (CDK12–cyclin K and DDB1; [6]): 1.782 and 2.014 | TR-FRET signal, individual replicate (CDK12–cyclin K and DDB1; compound concentration 2448 nM): 1.858 and 2.0804 | TR-FRET signal, individual replicate (CDK12–cyclin K and DDB1; [7]): 1.8943 and 2.138 | TR-FRET signal, individual replicate (CDK12–cyclin K and DDB1; [8]): 1.837 and 2.0323 | EC50 (CDK12–cyclin K and DDB1; [10]): 185 ± 22 nM | EC50 (CDK12–cyclin K and DDB1; sheet MOESM7, read-out: log TR-FRET EC50 (converted)): 185 nM | DC50 [1, 9]: > 10000 nM
SMILES: CCCCc1ccc(CNc2nc(N[C@H](CC)CO)nc3c2ncn3C(C)C)cc1 [DS03]
EC50 (HEK293T cells): > 10000 nM | Toxicity rescue (HEK293T cells): 0%

TR-FRET signal at compound concentration 0.468 nM (CDK12–cyclin K and DDB1; compound concentration 0.468 nM, raw titration data): 0.2712 and 0.18 and 0.1818 | TR-FRET signal at compound concentration 2.16 nM (CDK12–cyclin K and DDB1; compound concentration 2.16 nM, raw titration data): 0.3079 and 0.2048 and 0.2158 | TR-FRET signal at compound concentration 3.6 nM (CDK12–cyclin K and DDB1; compound concentration 3.6 nM, raw titration data): 0.3797 and 0.262 and 0.2749 | TR-FRET signal at compound concentration 7.92001 nM (CDK12–cyclin K and DDB1; compound concentration 7.92001 nM, raw titration data): 0.5132 and 0.3757 and 0.3886 | TR-FRET signal at compound concentration 15.84 nM (CDK12–cyclin K and DDB1; compound concentration 15.84 nM, raw titration data): 0.7262 and 0.5713 and 0.5982 | TR-FRET signal at compound concentration 30.96 nM (CDK12–cyclin K and DDB1; compound concentration 30.96 nM, raw titration data): 1.044 and 0.9086 and 0.9152 | TR-FRET signal at compound concentration 62.6401 nM (CDK12–cyclin K and DDB1; compound concentration 62.6401 nM, raw titration data): 1.465 and 1.176 and 1.2036 | TR-FRET signal at compound concentration 125.28 nM (CDK12–cyclin K and DDB1; compound concentration 125.28 nM, raw titration data): 1.697 and 1.379 and 1.374 | TR-FRET signal at compound concentration 244.8 nM (CDK12–cyclin K and DDB1; compound concentration 244.8 nM, raw titration data): 1.763 and 1.446 and 1.498 | TR-FRET signal at compound concentration 993.601 nM (CDK12–cyclin K and DDB1; compound concentration 993.601 nM, raw titration data): 1.748 and 1.523 and 1.543 | TR-FRET signal at compound concentration 2001.6 nM (CDK12–cyclin K and DDB1; compound concentration 2001.6 nM, raw titration data): 1.731 and 1.529 and 1.559 | EC50 (CDK12–cyclin K and DDB1; [10]): 28 ± 2 nM | EC50 (CDK12–cyclin K and DDB1; source data sheet correlations, read-out: TR-FRET EC50): 27.7 nM | DC50 ([1]; source data sheet correlations, read-out: DC50): 260 nM
SMILES: CC[C@H](CO)Nc1nc(NCc2ccc(-c3ccncc3)nc2)c2ncn(C(C)C)c2n1 [DS53]
EC50 (HEK293T cells): 635 nM | Toxicity rescue (HEK293T cells): 140%
